Our source for the ED50 values is patent US4228298A, “15-Deoxy-16-hydroxy-16-fluoromethyl, difluoromethyl or trifluoromethyl prostaglandins of the E and F series” (American Cyanamid Company, priority 1979, dated 1980).

What all share (type): in vivo
For experiment [1], the system named is bronchospasms elicited by serotonin. The experiment is described as follows: Konzett procedure, bronchodilator activity against bronchospasms elicited by intravenous serotonin. Conditions: Cavia porcellus; spasmogen serotonin; three logarithmic cumulative intravenous doses; guinea-pigs; read-out: ED 50 (spasmogen Serotonin). How it is done:
(§1) The bronchodilator activity for representative compounds of this invention was determined in Guinea-Pigs against bronchospasms elicited by intravenous injections of serotonin, histamine, and acetylcholine, by the Konzett procedure the details of which are those discussed by J. Lulling, P. Lievens, F. El Sayed and J. Prignot, Arzeimittel-Forschung 18, 995 (1968).
(§2) In the table which follows, bronchodilator activity for representative compounds of the invention against spasmogenic agents serotonin, histamine, and acetylcholine is expressed as an ED50 determined from the results obtained with three logarithmic cumulative intravenous doses.

Experiment [2] has as its system bronchospasms elicited by histamine. The experiment is described as follows: Konzett procedure, bronchodilator activity against bronchospasms elicited by intravenous histamine. Particulars: Cavia porcellus; spasmogen histamine; three logarithmic cumulative intravenous doses; guinea-pigs; read-out: ED 50 (spasmogen Histamine). How it is done: as §1, §2
Experiment [3] concerns bronchospasms elicited by acetylcholine. Briefly: Konzett procedure, bronchodilator activity against bronchospasms elicited by intravenous acetylcholine. Particulars: Cavia porcellus; spasmogen acetylcholine; three logarithmic cumulative intravenous doses; guinea-pigs; read-out: ED 50 (spasmogen Acetylcholine). The protocol:
as §1, §2

`CCCCC(O)(CF)C/C=C/[C@H]1[C@H](O)CC(=O)[C@@H]1C/C=C\CCCC(=O)O` (relative stereo) [dl-11α,16-dihydroxy-9-oxo-16-fluoromethyl-5-cis-13-trans prostadienoic acid]: the values for the ED50 in experiment [1], in experiment [2] and in experiment [3] were 1.38 µg/kg, 2.57 µg/kg and 1.94 µg/kg, respectively.

In the case of `CCCCC(O)(C/C=C/[C@H]1[C@H](O)CC(=O)[C@@H]1C/C=C\CCCC(=O)O)C(F)F` (relative stereo) [dl-11α,16-dihydroxy-9-oxo-16-difluoromethyl-5-cis-13-trans prostadienoic acid], the ED50 in experiment [1] was 4.6 µg/kg; in experiment [2], 2.78 µg/kg; in experiment [3] it was 4.04 µg/kg.

Consider `CCCCC(O)(C/C=C/[C@H]1[C@H](O)CC(=O)[C@@H]1C/C=C\CCCC(=O)O)C(F)(F)F` (relative stereo) [dl-11α,16-dihydroxy-9-oxo-16-trifluoromethyl-5-cis-13-trans prostadienoic acid], for which the ED50 turned out to be 7.96 µg/kg in experiment [1], 4.15 µg/kg in experiment [2] and 10 µg/kg in experiment [3].
